# Assay results as given in US9850221B2, “Sulfated and unsulfated flavonoid oligomers as cancer therapeutics” (VIRGINIA COMMONWEALTH UNIVERSITY, priority 2013, dated 2017).
# How the values were obtained:
# Type in all cases: cell-based, human
# [1] = test system: HCT-116 cells, grown in spheroid condition; assay: Apoptosis assay (annexin V/propidium iodide and acridine orange/ethidium bromide); conditions: annexin V labeling and acridine orange/ethidium bromide staining, 100 μM, 24 hours, vs vehicle
# Experimental: Apoptosis Assay. Human colon cancer HCT-116 cells, grown in spheroid condition were treated with vehicle or NSGMs for 24 hours. Following which cells were trypsinized and single cells were re-suspended at 10^6 cells/mL in PBS buffer. Two different methods were used to assess apoptosis induction. In the first methods, cells were incubated with propidium iodide and Annexin V-APC (ebioscience) and flow cytometric analyses were performed as above. […] Briefly, a small volume of cell suspension was mounted on a glass slide and incubated with 1 μl of AO/EB solution and mixed gently just prior to microscopy and quantification. At least 500 cells in 10-15 fields were examined in each sample using Nikon ECLIPSE E800M fluorescence microscope using 20× objective. […] The data was expressed as apoptosis index=[([apoptotic cells (NSGMs)/total cells (NSGMs)]/[apoptotic cells (vehicle)/total cells (vehicle)]).
# [2] = test system: self-renewal factors OCT4, BMI-1, c-MYC; assay: Western blot of self-renewal factors in spheroids; conditions: 100 μM, HT-29
# Experimental: (§1) Western Blotting Analysis. Western blot analysis was performed according to the standard protocol described in the literature. Briefly, HT-29 cells were plated in serum-free SCM in a low adhesion 6-well plate to obtain spheroids. Mature spheroids were treated on day 4 after plating, with vehicle or NSGMs for indicated time and cells were solubilized in lysis buffer (20 mM Na3PO4, 100 mM NaCl, 2 mM EDTA, 1% Nonidet P-40, 2.5 mM Na3VO4) containing protease (Roche) as well as phosphatase inhibitor cocktails (Sigma). Following centrifugation at 14,000 g for 15 min, the supernatant was used for Western blot analysis. In all analyses, protein concentration was determined by the Bio-Rad Protein Assay kit (Bio-Rad). Approximately 25-50 μg of protein was separated by polyacrylamide gel electrophoresis and was transferred to PVDF membrane (Bio-Rad). Blocking was done with 5% low fat milk powder for 1 hr followed by overnight incubation with primary antibody (dilution 1:1000): anti-CD44 (Cell Signaling), anti-EpCAM (Cell Signaling), anti-LGR5 (Origene), anti-CD133 ((Miltenyi Biotec), anti-CXCR4 (Abeam), anti-OCT4 (Cell Signaling), anti-BMI-1 (Millipore), anti-c-MYC (Millipore) and anti-CK20 (Abeam). This was followed by incubation with appropriate secondary antibody and protein bands were visualized using the enhanced chemiluminescence detection system and imaged with LAS-3000 Imaging System (FUJIFILM). Densitometry was determined by AIDA image analyzer software (Raytest) and results were calculated as relative intensity compared to control. All experiments were performed at least three times.
# [3] = test system: HT-29 cells; assay: Primary (1°) colonosphere formation assay, HT-29 (Screen 1); conditions: 100 μM
# Experimental: Primary (1°) Colonosphere Formation Assay. For primary sphere formation, cells were plated in non-treated, low adhesion, 96 wells plate at the concentration of 100 cells/100 μL/well in stem cell media (SCM) that consisted of DMEM:F12:AA (Gibco), supplemented with 1×B27 (Gibco), 20 ng/mL epidermal growth factor and 10 ng/mL fibroblast growth factor (Sigma). After four hour of incubation, vehicle (control) or NSGM at the desired concentrations were added to each well (at least in triplicates for each sample). On day five, numbers of spheres ranging from […] in diameter were counted using phase contrast microscope and percent inhibition was calculated compared to control.
# In this screen, sulfated NSGMs that inhibit HT-29 growth under spheroid conditions, but not under monolayer conditions, were then assessed for retention of 2° and 3° spheroid growth inhibition profiles in the absence of NSGM. The latter screen is of particular importance as primary spheroid growth although selective for CSCs doses not distinguish between non self-renewing progenitors and self-renewing CSCs. […] These 11 NSGMs belonged to G2, G4, G11 and G12 scaffolds but only four of the six G2 molecules, one of the two G4, four of the seven G11 and two of the five G12 molecules satisfied the first screen.
# [4] = test system: LGR5; assay: Flow cytometry analysis of CSC markers in HT-29 spheroids; conditions: 100 μM, vs vehicle-treated controls
# Experimental: Flow Cytometry Analysis. Human colon cancer HT-29 cells, grown in spheroid or monolayer condition were treated with vehicle or NSGMs for 24 hours, were trypsinized and single cells were re-suspended at 10^6 cells/mL in PBS buffer. Cells were incubated with fluorophore conjugated antibody for 30 minutes at 4° C. and washed once with PBS buffer prior to analysis. Following antibody and dilution were used: LGR5-PE) (Dilution 1:50, Origene), DCLK1 (Dilution 1:33, Abeam). Cell sorting was performed using FACSAria™ II High-Speed Cell Sorter (BD Biosciences) and data were analyzed with FCS Express 4 Flow Cytometry software (De-Novo Software).
# [5] = test system: CSC markers CD44, CD133, EpCAM, LGR5, CXCR-4; assay: Western blot of CSC markers in HT-29 spheroids; conditions: HT-29 spheroids, 100 μM, Western blot densitometry vs vehicle
# Experimental: as §1
smiles,measurement,setting,value
O=c1cc(-c2ccc(OS(=O)(=O)O)c(OS(=O)(=O)O)c2)oc2cc(OS(=O)(=O)O)cc(OS(=O)(=O)O)c12 [G1.4],induction of apoptosis in spheroid cells,[1],no such effects
same,BMI-1 expression,[2],no such changes
same,c-MYC expression,[2],no such changes
same,Screen 1 outcome (spheroid versus monolayer growth inhibition),[3],completely failed
same,reduction in LGR5 (hi) cells,[4],< 15%
same,"reduction of expression of CSC markers (CD44, CD133, EpCAM, LGR5, CXCR-4)",[5],no effect
